System: Pyrenophora teres
Test: activity against net blotch of barley caused by Pyrenophora teres, 1-day-protective application
Format: in vivo, Pyrenophora [syn. Drechslera] teres on barley seedlings
Details: individual active compound, evaluated after 6 days
Procedure: The active compounds, separately or jointly, were prepared as a stock solution comprising 0.25% by weight of active compound in acetone or DMSO. 1% by weight of the emulsifier Uniperol® EL (wetting agent having emulsifying and dispersant action based on ethoxylated alkylphenols) was added to this solution, and the mixture was diluted with water to the desired concentration.
Use example-activity against net blotch of barley caused by Pyrenophora teres, 1-day-protective application
Leaves of pot-grown barley seedlings were sprayed to run-off point with an aqueous suspension having the concentration of active compound stated below. 24 hours after the spray coating had dried on, the test plants were inoculated with an aqueous spore suspension of Pyrenophora[syn. Drechslera] teres, the causative agent of net blotch. The test plants were subsequently placed in a greenhouse at temperatures between 20 and 24° C. and at 95 to 100% relative atmospheric humidity. After 6 days, the extent of development of the disease was determined visually in % infection of the total leaf area.
The visually determined percentages of infected leaf areas were converted into efficacies in % of the untreated control:
The efficacy (E) is calculated as follows using Abbot's formula: E=(1α/β)·100 • α corresponds to the fungicidal infection of the treated plants in % and • β corresponds to the fungicidal infection of the untreated (control) plants in %
An efficacy of 0 means that the infection level of the treated plants corresponds to that of the untreated control plants; an efficacy of 100 means that the treated plants were not infected.
The expected efficacies of mixtures of active compounds were determined using Colby's formula (Colby, S. R. “Calculating synergistic and antagonistic responses of herbicide combinations”, Weeds, 15, 20-22, 1967) and compared with the observed efficacies.
Colby's Formula: E=x+y−x·y/100 • E expected efficacy, expressed in % of the untreated control, when using the mixture of the active compounds A and B at the concentrations a and b • x efficacy, expressed in % of the untreated control, when using the active compound A at the concentration a
y efficacy, expressed in % of the untreated control, when using the active compound B at the concentration b

Compound: CC1CCN(c2c(-c3c(F)cc(F)cc3F)c(Cl)nc3ncnn23)CC1 [I, 5-chloro-7-(4-methylpiperidin-1-yl)-6-(2,4,6-trifluorophenyl)-[1,2,4]triazolo[1,5-a]pyrimidine]
- Efficacy in % of the untreated control (1.25 ppm in the spray liquor): 53%

Compound: CC(C)OC(=O)N[C@H](C(=O)N[C@H](C)c1nc2ccc(F)cc2s1)C(C)C [II.1, isopropyl {(S)-1-[(1 R)-1-(6-fluorobenzothiazol-2-yl)ethylcarbamoyl]-2-methylpropyl}carbamate]
- Efficacy in % of the untreated control (0.25 ppm in the spray liquor): 0%
- Efficacy in % of the untreated control (1.25 ppm in the spray liquor): 0%
- Efficacy in % of the untreated control (6.25 ppm in the spray liquor): 0%
